Patent publication US20240383915A1, “OXAZEPINE COMPOUNDS AND USES THEREOF IN THE TREATMENT OF CANCER” (Genentech, Inc., priority 2021, published 2024)

What was measured:
KRas(G12V) = KRas(G12V) (Homo sapiens (Human), UniProt P01116, G12V); assay: KRas(G12V) GDP HTRF (BODIPY-GDP exchange TR-FRET); type: biochemical
KRas = KRas (Homo sapiens (Human), UniProt P01116); assay: KRas GDP HTRF (BODIPY-GDP exchange TR-FRET); type: biochemical
Summary of the method: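 Inhibition of SOS1-mediated exchange of BODIPY-GDP on KRAS G12D, started with 3 nM recombinant human SOS1 and 300 nM BODIPY-GDP and read after 60 min. TR-FRET excitation 337 nm, ratio 520/490 nm ×10,000. IC50 from 4-parameter Hill fit of normalized data.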

SW480 cells = assay: SW480 proliferation assay; type: cell-based; conditions: Homo sapiens, SW480, SW480; read-out: SW480 Prolif IC50 (G12V)
PC-9 cells = assay: PC9 proliferation assay; type: cell-based, human; conditions: Homo sapiens, PC-9, PC9; read-out: PC9 Prolif IC50 (G12V)

Chain of KRas(G12V) (P01116-2 other isoform, or with tags, fused parts or gaps G12V): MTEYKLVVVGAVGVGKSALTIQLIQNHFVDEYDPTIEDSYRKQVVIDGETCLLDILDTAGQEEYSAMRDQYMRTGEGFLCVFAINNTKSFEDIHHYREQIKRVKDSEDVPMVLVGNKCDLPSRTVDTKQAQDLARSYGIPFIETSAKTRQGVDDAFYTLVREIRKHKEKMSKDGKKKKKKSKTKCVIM
Chain of KRas (P01116-2 other isoform, or with tags, fused parts or gaps): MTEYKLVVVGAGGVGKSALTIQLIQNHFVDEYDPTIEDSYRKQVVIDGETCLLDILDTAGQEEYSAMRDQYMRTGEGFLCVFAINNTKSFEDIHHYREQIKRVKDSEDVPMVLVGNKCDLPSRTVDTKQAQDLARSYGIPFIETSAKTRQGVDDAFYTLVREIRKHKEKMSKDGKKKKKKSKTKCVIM

| SMILES | IC50 (KRas(G12V)) | IC50 (KRas) | IC50 (SW480 cells) | IC50 (PC-9 cells) |
| --- | --- | --- | --- | --- |
| CCO[C@H]1CN2CCC[C@@]2(COc2nc3c4c(c(Cl)c(-c5nc(N)cc(C)c5C(F)(F)F)c(F)c4n2)OCCN3[C@H](C)c2cccnc2N)C1 (atropisomer, axis not shown; (aS)) [Example 89, 6-((R)-4-((R)-1-(2-aminopyridin-3-yl)ethyl)-8-chloro-2-(((2R,7aS)-2-ethoxytetrahydro-1H-pyrrolizin-7a(5H)-yl)methoxy)-10-fluoro-5,6-dihydro-4H-[1,4]oxazepino[5,6,7-de]quinazolin-9-yl)-4-methyl-5-(trifluoromethyl)pyridin-2-amine] | 0.075 nM | 0.17 nM | 7.2 nM | 2400 nM |
| Nc1ncccc1CN1CCOc2c(Cl)c(-c3cccc4c3CCC4)cc3nc(OC[C@@]45CCCN4C[C@H](F)C5)nc1c23 [Example 63, 3-((8-chloro-9-(2,3-dihydro-1H-inden-4-yl)-2-(((2R,7aS)-2-fluorotetrahydro-1H-pyrrolizin-7a(5H)-yl)methoxy)-5,6-dihydro-4H-[1,4]oxazepino[5,6,7-de]quinazolin-4-yl)methyl)pyridin-2-amine] | 8.7 nM | 69 nM | 3300 nM | 4000 nM |
| Cc1cc(N)nc(-c2c(Cl)c3c4c(nc(OCCF)nc4c2F)N([C@H](C)c2cccnc2N)CCO3)c1C(F)(F)F (atropisomer, axis not shown) [Example 151, 6-((R)-4-((R)-1-(2-aminopyridin-3-yl)ethyl)-8-chloro-10-fluoro-2-(2-fluoroethoxy)-5,6-dihydro-4H-[1,4]oxazepino[5,6,7-de]quinazolin-9-yl)-4-methyl-5-(trifluoromethyl)pyridin-2-amine] | 1.1 nM | 5.4 nM | 700 nM | 14000 nM |
| Cc1cc(N)nc(-c2c(Cl)c3c4c(nc(OC[C@@H]5C[C@]6(CN5C)CC6(F)F)nc4c2F)N([C@H](C)c2cccnc2N)CCO3)c1C(F)(F)F (atropisomer, axis not shown) [Example 68, 6-((R)-4-((R)-1-(2-aminopyridin-3-yl)ethyl)-8-chloro-2-(((3R,6S)-1,1-difluoro-5-methyl-5-azaspiro[2.4]heptan-6-yl)methoxy)-10-fluoro-5,6-dihydro-4H-[1,4]oxazepino[5,6,7-de]quinazolin-9-yl)-4-methyl-5-(trifluoromethyl)pyridin-2-amine] | 0.1 nM | 0.31 nM | 11 nM | 1800 nM |
| Nc1ncccc1CN1CCOc2c(Cl)c(-c3cccc(CO)c3)cc3nc(OC[C@@]45CCCN4C[C@H](F)C5)nc1c23 [Example 64, (3-(4-((2-aminopyridin-3-yl)methyl)-8-chloro-2-(((2R,7aS)-2-fluorotetrahydro-1H-pyrrolizin-7a(5H)-yl)methoxy)-5,6-dihydro-4H-[1,4]oxazepino[5,6,7-de]quinazolin-9-yl)phenyl)methanol] | 290 nM | 2700 nM | 17000 nM | 5400 nM |
| Cc1c(F)c(N)nc(-c2c(Cl)c3c4c(nc(OC[C@@]56CCCN5C[C@H](F)C6)nc4c2F)N([C@H](C)c2cccnc2N)CCO3)c1C(F)(F)F (atropisomer, axis not shown; (aS)) [Example 75a, 6-((R)-4-((R)-1-(2-aminopyridin-3-yl)ethyl)-8-chloro-10-fluoro-2-(((2R,7aS)-2-fluorotetrahydro-1H-pyrrolizin-7a(5H)-yl)methoxy)-5,6-dihydro-4H-[1,4]oxazepino[5,6,7-de]quinazolin-9-yl)-3-fluoro-4-methyl-5-(trifluoromethyl)pyridin-2-amine] | 0.05 nM | 0.066 nM | 1.1 nM | 890 nM |
| Cc1cc(N)nc(-c2c(Cl)c3c4c(nc(N5CC6(COCCN6)C5)nc4c2F)N([C@H](C)c2cccnc2N)CCO3)c1C(F)(F)F (atropisomer, axis not shown) [Example 90, 6-((R)-4-((R)-1-(2-aminopyridin-3-yl)ethyl)-8-chloro-10-fluoro-2-(8-oxa-2,5-diazaspiro[3.5]nonan-2-yl)-5,6-dihydro-4H-[1,4]oxazepino[5,6,7-de]quinazolin-9-yl)-4-methyl-5-(trifluoromethyl)pyridin-2-amine] | 0.22 nM | 0.99 nM | 390 nM | 6400 nM |
| C[C@H](c1cccnc1N)N1CCOc2c(Cl)c(-c3c(F)ccc4cnn(C)c34)c(F)c3nc(OC[C@@]45CCCN4C[C@H](F)C5)nc1c23 (single isomer, unassigned) [Example 105a] | 0.08 nM | 0.23 nM | 16 nM | 7100 nM |
| Cc1cc(N)nc(-c2cc3nc(OC[C@@H]4C[C@@H](F)CN4C)nc4c3c(c2Cl)OCCN4Cc2cccnc2N)c1C(F)(F)F [Example 49, 6-(4-((2-aminopyridin-3-yl)methyl)-8-chloro-2-(((2S,4R)-4-fluoro-1-methylpyrrolidin-2-yl)methoxy)-5,6-dihydro-4H-[1,4]oxazepino[5,6,7-de]quinazolin-9-yl)-4-methyl-5-(trifluoromethyl)pyridin-2-amine] | 0.57 nM | 3.8 nM | 1100 nM | 3800 nM |

Results, then the molecule that gave them:

| IC50 (KRas(G12V)) | IC50 (KRas) | IC50 (SW480 cells) | IC50 (PC-9 cells) | SMILES |
| --- | --- | --- | --- | --- |
| 0.09 nM | 0.2 nM | 2.8 nM | 7500 nM | C[C@H](c1cccnc1N)N1CCOc2c(Cl)c(-c3nc(N)cc4ccccc34)c(F)c3nc(OC[C@@]45CCCN4C[C@H](F)C5)nc1c23 (atropisomer, axis not shown; (aS)) [Example 113a, 1-((R)-4-((R)-1-(2-aminopyridin-3-yl)ethyl)-8-chloro-10-fluoro-2-(((2R,7aS)-2-fluorotetrahydro-1H-pyrrolizin-7a(5H)-yl)methoxy)-5,6-dihydro-4H-[1,4]oxazepino[5,6,7-de]quinazolin-9-yl)isoquinolin-3-amine] |
| 0.22 nM | 0.46 nM | 3 nM | 7600 nM | Cc1cc(N)nc(-c2c(Cl)c3c4c(nc(OC[C@]56CCN5CC(F)(F)C6)nc4c2F)N([C@H](C)c2cccnc2N)CCO3)c1C(F)(F)F (atropisomer, axis not shown) [Example 114b, 6-((R)-4-((R)-1-(2-aminopyridin-3-yl)ethyl)-8-chloro-2-(((R)-3,3-difluoro-1-azabicyclo[3.2.0]heptan-5-yl)methoxy)-10-fluoro-5,6-dihydro-4H-[1,4]oxazepino[5,6,7-de]quinazolin-9-yl)-4-methyl-5-(trifluoromethyl)pyridin-2-amine] |
| 0.06 nM | 0.2 nM | 2 nM | 1400 nM | C[C@H](c1cccnc1N)N1CCOc2c(Cl)c(-c3nc(N)ccc3C(F)(F)F)c(F)c3nc(OC[C@@]45CCCN4C[C@H](F)C5)nc1c23 (atropisomer, axis not shown; (aS)) [Example 108a, 6-((R)-4-((R)-1-(2-aminopyridin-3-yl)ethyl)-8-chloro-10-fluoro-2-(((2R,7aS)-2-fluorotetrahydro-1H-pyrrolizin-7a(5H)-yl)methoxy)-5,6-dihydro-4H-[1,4]oxazepino[5,6,7-de]quinazolin-9-yl)-5-(trifluoromethyl)pyridin-2-amine] |
